Reference: ChEMBL document CHEMBL5154740, “Novel Aurora A and Protein Kinase C (α, β1, β2, and θ) Multitarget Inhibitors: Impact of Selenium Atoms on the Potency and Selectivity” (J Med Chem, 2022)

How the values were obtained:
[1] = molecular target: Vascular endothelial growth factor receptor 1 (Homo sapiens) (UniProt P17948); assay: Inhibition of FLT1/VEGFR1(unknown origin) at 50 nM by Z'LYTE screening method relative to control
[2] = molecular target: Proto-oncogene tyrosine-protein kinase Src (Homo sapiens) (UniProt P12931); assay: Inhibition of SRC (unknown origin) at 50 nM by Z'LYTE screening method relative to control
[3] = molecular target: DNA-dependent protein kinase catalytic subunit (Homo sapiens) (UniProt P78527); assay: Inhibition of DNA-PK (unknown origin) at 50 nM by Z'LYTE screening method relative to control
MDA-MB-231 = assay: Cytotoxicity against human MDA-MB-231/M cells assessed as reduction in cell viability incubated for 96 hrs by MTT assay; assay type: functional, cell-based; conditions: MDA-MB-231, 96 h
[4] = molecular target: ALK tyrosine kinase receptor (Homo sapiens) (UniProt Q9UM73); assay: Inhibition of ALK (unknown origin) at 50 nM by Z'LYTE screening method relative to control
[5] = molecular target: Dual specificity mitogen-activated protein kinase kinase 1 (Homo sapiens) (UniProt Q02750); assay: Inhibition of MAP2K1 (unknown origin) at 50 nM by Z'LYTE screening method relative to control
[6] = molecular target: Protein kinase C theta type (Homo sapiens, UniProt Q04759); assay: Inhibition of PKCtheta (unknown origin) at 50 nM by Z'LYTE screening method relative to control
[7] = molecular target: Protein kinase C delta type (Homo sapiens) (UniProt Q05655); assay: Inhibition of PKCdelta (unknown origin) at 50 nM by Z'LYTE screening method relative to control
[8] = molecular target: Proto-oncogene tyrosine-protein kinase receptor Ret (Homo sapiens) (UniProt P07949); assay: Inhibition of RET (unknown origin) at 50 nM by Z'LYTE screening method relative to control
[9] = molecular target: RAC-alpha serine/threonine-protein kinase (Homo sapiens) (UniProt P31749); assay: Inhibition of AKT1 (unknown origin) at 50 nM by Z'LYTE screening method relative to control
[10] = molecular target: T1, Protein kinase C zeta type (Homo sapiens) (UniProt Q05513); assay: Inhibition of PKCzeta (unknown origin) at 50 nM by Z'LYTE screening method relative to control
T1 sequence (whole entry): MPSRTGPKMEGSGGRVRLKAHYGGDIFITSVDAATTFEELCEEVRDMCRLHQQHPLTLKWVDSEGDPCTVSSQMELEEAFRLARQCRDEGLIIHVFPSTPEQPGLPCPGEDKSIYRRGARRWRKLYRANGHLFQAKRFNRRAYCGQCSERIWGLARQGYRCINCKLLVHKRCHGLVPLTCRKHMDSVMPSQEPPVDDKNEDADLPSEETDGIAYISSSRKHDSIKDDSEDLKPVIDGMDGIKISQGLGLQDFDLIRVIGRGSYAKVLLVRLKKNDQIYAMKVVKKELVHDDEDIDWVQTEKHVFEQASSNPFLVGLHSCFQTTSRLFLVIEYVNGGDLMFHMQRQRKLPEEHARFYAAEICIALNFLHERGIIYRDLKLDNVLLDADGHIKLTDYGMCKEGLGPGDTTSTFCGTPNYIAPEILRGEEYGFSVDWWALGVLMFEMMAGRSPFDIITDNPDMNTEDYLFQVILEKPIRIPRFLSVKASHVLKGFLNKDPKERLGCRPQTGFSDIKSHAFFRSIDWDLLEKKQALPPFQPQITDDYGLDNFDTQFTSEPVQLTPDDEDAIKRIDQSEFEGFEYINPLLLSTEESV

[11] = molecular target: Tyrosine-protein kinase ABL1 (Homo sapiens) (UniProt P00519); assay: Inhibition of ABL1 (unknown origin) at 50 nM by Z'LYTE screening method relative to control
[12] = molecular target: Ribosomal protein S6 kinase beta-1 (Homo sapiens) (UniProt P23443); assay: Inhibition of p70S6K (unknown origin) at 50 nM by Z'LYTE screening method relative to control
Homo sapiens = species on record: Homo sapiens; assay: Inhibition of CDK1/Cyclin B (unknown origin) at 50 nM by Z'LYTE screening method relative to control
[13] = molecular target: Aurora kinase B (Homo sapiens) (UniProt Q96GD4); assay: Inhibition of AURB (unknown origin) at 50 nM by Z'LYTE screening method relative to control
[14] = molecular target: PI3-kinase p110-alpha/p85-alpha (Homo sapiens) (UniProt P27986+P42336); assay: Inhibition of p110alpha/p85alpha (unknown origin) at 50 nM by Z'LYTE screening method relative to control; assay type: protein-complex assay
[15] = molecular target: Protein kinase C beta type (Homo sapiens) (UniProt P05771); assay: Inhibition of PKCbeta2 (unknown origin) at 50 nM by Z'LYTE screening method relative to control
[16] = molecular target: Receptor tyrosine-protein kinase erbB-2 (Homo sapiens) (UniProt P04626); assay: Inhibition of ERBB2 (unknown origin) at 50 nM by Z'LYTE screening method relative to control
[17] = molecular target: Tyrosine-protein kinase SYK (Homo sapiens) (UniProt P43405); assay: Inhibition of SYK (unknown origin) at 50 nM by Z'LYTE screening method relative to control
[18] = molecular target: Protein kinase C beta type (Homo sapiens) (UniProt P05771); assay: Inhibition of PKCbeta1 (unknown origin) at 50 nM by Z'LYTE screening method relative to control
[19] = molecular target: Protein kinase C gamma type (Homo sapiens) (UniProt P05129); assay: Inhibition of PKC gamma (unknown origin) at 50 nM by Z'LYTE screening method relative to control
[20] = molecular target: T2, Aurora kinase A (Homo sapiens) (UniProt O14965); assay: Inhibition of AURA (unknown origin) at 50 nM by Z'LYTE screening method relative to control
T2 sequence (whole entry): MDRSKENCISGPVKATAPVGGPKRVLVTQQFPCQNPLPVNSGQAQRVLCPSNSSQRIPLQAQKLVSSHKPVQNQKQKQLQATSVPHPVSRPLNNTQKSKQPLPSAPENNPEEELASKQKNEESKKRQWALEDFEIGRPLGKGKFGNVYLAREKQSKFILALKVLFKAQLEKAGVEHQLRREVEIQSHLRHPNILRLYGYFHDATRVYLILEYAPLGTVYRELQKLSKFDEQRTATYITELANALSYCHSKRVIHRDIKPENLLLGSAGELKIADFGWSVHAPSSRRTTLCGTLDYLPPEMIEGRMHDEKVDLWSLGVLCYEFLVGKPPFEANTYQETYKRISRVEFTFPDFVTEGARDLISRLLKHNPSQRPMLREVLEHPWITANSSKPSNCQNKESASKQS

Sequence of DNA-dependent protein kinase catalytic subunit (Homo sapiens) (P78527 whole entry): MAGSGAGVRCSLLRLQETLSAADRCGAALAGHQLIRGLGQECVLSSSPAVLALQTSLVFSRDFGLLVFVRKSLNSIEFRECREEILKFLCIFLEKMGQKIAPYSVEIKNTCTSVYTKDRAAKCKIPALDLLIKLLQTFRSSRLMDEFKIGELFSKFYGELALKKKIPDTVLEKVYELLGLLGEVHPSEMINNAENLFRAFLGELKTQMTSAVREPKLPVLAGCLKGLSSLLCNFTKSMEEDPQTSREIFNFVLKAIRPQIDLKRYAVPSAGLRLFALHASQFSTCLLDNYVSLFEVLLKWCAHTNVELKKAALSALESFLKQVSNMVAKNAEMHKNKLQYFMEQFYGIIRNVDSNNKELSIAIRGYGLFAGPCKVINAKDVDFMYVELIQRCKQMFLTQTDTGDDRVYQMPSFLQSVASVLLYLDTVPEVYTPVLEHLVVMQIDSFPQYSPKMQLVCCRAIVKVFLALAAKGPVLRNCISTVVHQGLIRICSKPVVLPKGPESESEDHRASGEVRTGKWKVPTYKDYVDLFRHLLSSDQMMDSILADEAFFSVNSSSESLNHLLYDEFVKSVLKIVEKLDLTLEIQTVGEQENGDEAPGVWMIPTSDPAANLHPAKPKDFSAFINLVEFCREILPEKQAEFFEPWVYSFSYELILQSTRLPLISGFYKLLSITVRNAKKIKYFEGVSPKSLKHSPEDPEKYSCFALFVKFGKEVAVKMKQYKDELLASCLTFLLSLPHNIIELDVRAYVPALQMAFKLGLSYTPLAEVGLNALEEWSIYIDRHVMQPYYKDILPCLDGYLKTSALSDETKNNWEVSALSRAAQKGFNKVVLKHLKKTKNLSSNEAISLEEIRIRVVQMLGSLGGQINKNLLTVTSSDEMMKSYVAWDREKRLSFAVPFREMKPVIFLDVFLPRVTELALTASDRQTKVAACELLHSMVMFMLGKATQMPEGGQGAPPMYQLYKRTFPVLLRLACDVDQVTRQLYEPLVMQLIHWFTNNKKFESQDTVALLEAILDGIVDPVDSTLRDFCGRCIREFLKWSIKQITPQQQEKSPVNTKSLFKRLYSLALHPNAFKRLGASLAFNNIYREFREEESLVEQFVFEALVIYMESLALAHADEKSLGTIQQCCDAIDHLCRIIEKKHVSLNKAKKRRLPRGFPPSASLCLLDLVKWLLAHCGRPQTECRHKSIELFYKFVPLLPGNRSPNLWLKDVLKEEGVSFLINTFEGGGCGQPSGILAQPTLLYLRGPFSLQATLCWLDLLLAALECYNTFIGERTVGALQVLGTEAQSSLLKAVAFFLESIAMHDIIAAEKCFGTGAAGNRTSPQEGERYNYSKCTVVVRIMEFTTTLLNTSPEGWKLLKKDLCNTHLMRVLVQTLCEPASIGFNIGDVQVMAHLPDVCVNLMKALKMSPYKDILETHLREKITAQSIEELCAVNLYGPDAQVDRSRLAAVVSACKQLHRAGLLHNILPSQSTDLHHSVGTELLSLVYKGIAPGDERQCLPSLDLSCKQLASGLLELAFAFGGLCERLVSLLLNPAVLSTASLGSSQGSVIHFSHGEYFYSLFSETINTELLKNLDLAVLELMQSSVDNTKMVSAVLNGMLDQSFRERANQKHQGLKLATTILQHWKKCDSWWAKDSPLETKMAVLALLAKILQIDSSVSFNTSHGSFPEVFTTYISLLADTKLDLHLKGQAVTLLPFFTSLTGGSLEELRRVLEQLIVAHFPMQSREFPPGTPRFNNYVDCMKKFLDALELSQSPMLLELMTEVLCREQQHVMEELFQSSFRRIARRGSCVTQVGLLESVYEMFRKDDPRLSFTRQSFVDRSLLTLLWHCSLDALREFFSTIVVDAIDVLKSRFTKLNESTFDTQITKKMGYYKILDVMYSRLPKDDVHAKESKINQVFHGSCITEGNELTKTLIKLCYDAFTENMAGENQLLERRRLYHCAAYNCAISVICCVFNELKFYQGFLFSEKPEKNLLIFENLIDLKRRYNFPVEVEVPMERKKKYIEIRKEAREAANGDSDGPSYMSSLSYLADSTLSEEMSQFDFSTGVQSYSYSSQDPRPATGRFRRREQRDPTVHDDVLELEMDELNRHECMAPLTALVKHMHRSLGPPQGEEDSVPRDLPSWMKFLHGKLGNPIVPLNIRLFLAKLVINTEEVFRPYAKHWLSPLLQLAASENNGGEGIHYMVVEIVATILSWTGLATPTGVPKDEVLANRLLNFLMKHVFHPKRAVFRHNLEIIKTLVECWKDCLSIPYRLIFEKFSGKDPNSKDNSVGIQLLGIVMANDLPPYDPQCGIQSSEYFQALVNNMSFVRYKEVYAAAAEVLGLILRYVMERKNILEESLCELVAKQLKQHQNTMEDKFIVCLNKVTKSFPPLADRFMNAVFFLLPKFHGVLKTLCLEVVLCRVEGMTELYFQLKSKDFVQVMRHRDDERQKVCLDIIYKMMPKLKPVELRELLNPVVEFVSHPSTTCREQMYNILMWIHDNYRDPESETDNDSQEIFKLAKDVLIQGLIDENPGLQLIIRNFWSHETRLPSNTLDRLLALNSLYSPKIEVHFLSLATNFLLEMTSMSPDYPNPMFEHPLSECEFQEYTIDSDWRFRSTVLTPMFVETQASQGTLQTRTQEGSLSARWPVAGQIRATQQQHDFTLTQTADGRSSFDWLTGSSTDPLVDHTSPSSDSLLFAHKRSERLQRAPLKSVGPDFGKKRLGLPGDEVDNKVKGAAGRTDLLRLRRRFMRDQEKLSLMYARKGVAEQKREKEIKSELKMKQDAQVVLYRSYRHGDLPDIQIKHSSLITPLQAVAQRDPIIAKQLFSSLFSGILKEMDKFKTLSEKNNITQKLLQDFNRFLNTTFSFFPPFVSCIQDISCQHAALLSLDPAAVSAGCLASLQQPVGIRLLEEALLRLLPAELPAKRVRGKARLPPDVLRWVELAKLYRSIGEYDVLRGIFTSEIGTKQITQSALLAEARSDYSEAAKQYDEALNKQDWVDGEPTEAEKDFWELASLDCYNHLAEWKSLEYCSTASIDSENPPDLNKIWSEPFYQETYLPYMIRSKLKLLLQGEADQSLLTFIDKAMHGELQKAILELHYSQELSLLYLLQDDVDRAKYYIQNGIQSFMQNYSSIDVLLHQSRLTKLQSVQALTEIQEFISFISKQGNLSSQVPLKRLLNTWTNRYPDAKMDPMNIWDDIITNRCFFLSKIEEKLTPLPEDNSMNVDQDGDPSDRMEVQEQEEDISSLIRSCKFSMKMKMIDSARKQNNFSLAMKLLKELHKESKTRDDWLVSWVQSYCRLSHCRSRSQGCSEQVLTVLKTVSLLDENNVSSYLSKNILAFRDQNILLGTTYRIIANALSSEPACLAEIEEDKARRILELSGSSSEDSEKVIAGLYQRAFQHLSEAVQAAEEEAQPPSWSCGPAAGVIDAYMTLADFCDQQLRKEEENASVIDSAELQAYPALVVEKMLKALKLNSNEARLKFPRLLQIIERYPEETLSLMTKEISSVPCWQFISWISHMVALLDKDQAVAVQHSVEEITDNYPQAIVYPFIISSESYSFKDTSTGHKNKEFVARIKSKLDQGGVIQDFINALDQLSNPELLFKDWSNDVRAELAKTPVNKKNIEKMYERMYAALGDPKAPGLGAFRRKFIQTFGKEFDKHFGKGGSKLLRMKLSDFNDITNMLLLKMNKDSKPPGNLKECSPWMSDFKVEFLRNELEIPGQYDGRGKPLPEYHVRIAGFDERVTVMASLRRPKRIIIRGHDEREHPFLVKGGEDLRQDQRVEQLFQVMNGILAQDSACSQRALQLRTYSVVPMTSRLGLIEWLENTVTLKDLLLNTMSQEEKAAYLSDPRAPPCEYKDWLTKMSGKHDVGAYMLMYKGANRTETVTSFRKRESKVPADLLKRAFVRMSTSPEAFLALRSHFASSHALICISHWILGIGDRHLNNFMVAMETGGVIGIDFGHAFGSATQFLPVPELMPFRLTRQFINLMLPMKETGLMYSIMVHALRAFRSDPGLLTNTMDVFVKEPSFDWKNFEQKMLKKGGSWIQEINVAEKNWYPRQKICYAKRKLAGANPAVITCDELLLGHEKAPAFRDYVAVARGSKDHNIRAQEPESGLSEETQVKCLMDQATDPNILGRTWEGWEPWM
Sequence of Protein kinase C delta type (Homo sapiens) (Q05655 whole entry, looked up): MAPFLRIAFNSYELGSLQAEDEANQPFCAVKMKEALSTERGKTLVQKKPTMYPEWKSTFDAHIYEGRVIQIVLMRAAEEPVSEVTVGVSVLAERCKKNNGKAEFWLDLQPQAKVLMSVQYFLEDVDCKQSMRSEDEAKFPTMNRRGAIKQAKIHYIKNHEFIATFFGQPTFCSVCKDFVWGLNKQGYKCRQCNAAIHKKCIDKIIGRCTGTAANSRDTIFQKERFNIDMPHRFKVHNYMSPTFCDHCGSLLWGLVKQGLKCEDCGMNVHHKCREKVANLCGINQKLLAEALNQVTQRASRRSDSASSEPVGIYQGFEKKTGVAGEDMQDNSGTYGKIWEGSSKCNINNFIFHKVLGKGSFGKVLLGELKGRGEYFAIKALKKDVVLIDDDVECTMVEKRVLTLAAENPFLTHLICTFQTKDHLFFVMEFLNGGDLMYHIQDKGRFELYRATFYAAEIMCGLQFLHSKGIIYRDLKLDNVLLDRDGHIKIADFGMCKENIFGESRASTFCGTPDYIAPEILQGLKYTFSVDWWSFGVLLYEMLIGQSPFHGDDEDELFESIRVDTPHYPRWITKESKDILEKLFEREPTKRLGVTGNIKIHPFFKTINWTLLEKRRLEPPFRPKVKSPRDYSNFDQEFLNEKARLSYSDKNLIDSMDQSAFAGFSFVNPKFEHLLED
Sequence of Aurora kinase B (Homo sapiens) (Q96GD4 whole entry): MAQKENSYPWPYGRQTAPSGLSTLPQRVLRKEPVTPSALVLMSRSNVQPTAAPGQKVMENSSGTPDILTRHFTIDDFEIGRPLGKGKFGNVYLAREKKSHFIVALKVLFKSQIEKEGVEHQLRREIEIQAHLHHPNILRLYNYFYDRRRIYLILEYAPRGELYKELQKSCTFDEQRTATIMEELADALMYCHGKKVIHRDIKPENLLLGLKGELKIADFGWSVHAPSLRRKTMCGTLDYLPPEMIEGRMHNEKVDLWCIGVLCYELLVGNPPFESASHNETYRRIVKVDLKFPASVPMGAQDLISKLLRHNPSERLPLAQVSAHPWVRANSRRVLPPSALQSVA

inhibition [1] [%] | inhibition [2] [%] | inhibition [3] [%] | inhibition [4] [%] | inhibition [5] [%] | inhibition [6] [%] | inhibition [7] [%] | inhibition [8] [%] | inhibition [9] [%] | inhibition [10] [%] | inhibition [11] [%] | inhibition [12] [%] | inhibition (Homo sapiens) [%] | inhibition [13] [%] | inhibition [14] [%] | inhibition [15] [%] | inhibition [16] [%] | inhibition [17] [%] | inhibition [18] [%] | SMILES | IC50 (MDA-MB-231) [µM] | other results
1 | 0 | 0 | 1 | 5 | 16 | 0 | 2 | 0 | 7 | 1 | 2 | 1 | 6 | 0 | 5 | 0 | 1 | 5 | C[C@@H]1[C@H]2C[C@@H](C[C@H]1Nc1nc(-n3[se]c4ccccc4c3=O)nc3[nH]cnc13)C2(C)C | 47.7 | inhibition [19]: 1%; inhibition [20]: 3%
0 | 5 | 0 | 1 | 4 | 0 | 0 | 10 | 2 | 9 | 0 | 1 | 0 | 4 | 0 | 5 | 0 | 3 | 5 | O=C1c2ccccc2CN1c1nc(NC2CCCCC2)c2nc[nH]c2n1 | 36.6 | inhibition [19]: 0%; inhibition [20]: 4%
1 | 0 | 0 | 2 | 3 | 83 | 6 | 1 | 9 | 9 | 11 | 0 | 0 | 6 | 0 | 12 | 1 | 4 | 8 | CCN(CC)CCCC(C)Nc1nc(-n2[se]c3ccccc3c2=O)nc2[nH]cnc12 (stereo unspecified) | 16.8 | inhibition [19]: 6%; inhibition [20]: 9%
